The pIC50 is the IC50 on a negative log10 scale, so that one unit is a factor of ten.

SMILES strings stand for the structures. pIC50: −log10 of the molar value.

Drawing on patent publication US10336748B2, “Methyoxy-substituted pyrrolopyridine modulators of RORC2 and methods of use thereof” (Pfizer Inc., priority 2015, dated 2019), this text covers IC50 for 14 compounds.

The target of test [1] is T1, RORC2 ligand binding domain (6-His-RORC2 LBD) (Homo sapiens, UniProt P51449).
T1 construct: made in house; host or cells: E. coli
T1 sequence (P51449 269-508 limits assumed): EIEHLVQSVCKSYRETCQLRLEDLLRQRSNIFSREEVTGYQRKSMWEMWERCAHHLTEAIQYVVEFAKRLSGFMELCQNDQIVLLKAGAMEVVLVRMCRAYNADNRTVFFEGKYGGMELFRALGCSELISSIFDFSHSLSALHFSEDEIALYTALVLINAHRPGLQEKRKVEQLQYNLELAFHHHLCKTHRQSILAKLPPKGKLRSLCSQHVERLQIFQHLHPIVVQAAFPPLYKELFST
Briefly: Co-activator recruitment by TR-FRET. The format is biochemical. As to conditions: 6.3 nM RORC2 LBD, 200 nM SRC1-2 coactivator peptide, 3 hr room temperature. The source says: The activity of compound of the invention can be determined by a co-activator recruitment by TR-FRET (time-resolved fluorescence resonance energy transfer) assay. In general, the assay is based on the interaction between N-terminally Six-Histidine-tagged-RORC2 ligand binding domain (6-His-RORC2 LBD), expressed in E. coli and purified by affinity chromatography, and biotin-coactivator peptide SRC1-2 (biotin-aminohexanoic acid-[…]-NH2; SEQ ID NO: 1) containing the LXXLL consensus domain which is responsible for receptor binding. This interaction is detected by addition of Europium labeled-anti-His antibody (Ex. 337 nm, Em. 620 nm, which binds to 6His) and Streptavidin-APC (Ex. 620 nm, Em. 665 nm, which binds to biotin). When receptor and coactivator are bound to each other, upon shining light at 337 nm on the sample, the Europium emits fluorescence that excites APC due to close proximity (FRET) and this signal is measured at 665 nm. Due to the long lasting fluorescence emission of Europium, the non-specific, short-lived fluorescence is time-resolved (TR) from the fluorescence of interest. Inhibitors of the interaction of receptor and coactivator peptide are detected by a decrease in TR-FRET signal.
Specifically, in one embodiment the aforementioned assay was performed as outlined below. The assay was carried out in black polystyrene. 384-well plates in a total assay volume of 50.5 μL. The assay buffer contained 50 mM TRIS-HCL pH 7.5, 1 mM NaCl, 2 mM MgCl2, 0.5 mg/mL bovine serum albumin, and 5 mM dithiothreitol. The final concentration of reagents was 6.3 nM RORC2 LBD, 200 nM SRC1-2, 50 nM streptavidin APC, 1 nM Europium-labeled anti-His antibody, and varying concentrations of compounds such that final concentration of DMSO is 1% (v/v). The assay steps were: (1) dispensing […] compound at 100× final concentration in DMSO (test wells) or DMSO only (control wells for no inhibition); and (2) dispensing 50 μL mixture of the other assay components including receptor (test wells) or excluding receptor (control wells for maximal inhibition).
Assay mixtures were incubated are room temperature for 3 hr and read in EnVision 2100 Multilabel Reader (PerkinElmer Life Sciences) at Excitation Filter 320, Emission Europium Filter 615, Emission APC Filter 665, Dichroic Mirror D400/D630.
TR-FRET signal was determined by calculating the ratio of 665 nm by 615 nm and […] values of compounds of the invention (Table 1) were determined by the non-linear regression analysis of dose response curves.
For orientation: TR-FRET usually uses a lanthanide donor and a delayed reading to cut background.

Another test has as its system human Th17 cells. Kind of test: IL-17 production from human Th17 cells. It is filed as cell-based. As to conditions: 144 h; IL-17A in supernatant by ELISA (MSD) after 6 days, human CD4+ T cells, anti-CD3 + anti-CD28 + cytokine cocktail. Here is the method: The activity of compound of the invention can be also be determined by an IL-17 production from human Th17 cells assay. In general, this assay measures blockade of IL-17 production, the signature cytokine of T helper 17 (Th17) cells, by compounds. Purified human CD4+ T cells are stimulated with anti-CD3+anti-CD28 and incubated with a cytokine cocktail that induce their differentiation into Th17 in the absence or presence of various concentrations of compound. After 6 days, IL-17A concentration is measured in the cell culture supernatant with an ELISA kit (MSD).
Preparation of human CD4+ T cells. CD4+ T cells were purified from buffy coats from healthy donors (obtained from Massachusetts General Hospital) by negative selection the following procedure: Mixing 25 mL of blood with 1 mL of Rosette Sep CD4+ T cell enrichment cocktail (StemCell Technologies) followed by application of a layer of 14 mL Ficoll Paque Plus (Amersham GE Healthcare) and subsequent centrifugation at 1200 g for 20 min at room temperature. The Ficoll layer was then harvested and washed with phosphate saline buffer containing 2% (v/v) fetal bovine serum and cells were resuspended with RPMI medium containing 10% (v/v) fetal bovine serum and 10% (v/v) DMSO, frozen and kept in LN2 until used.
On the first day of the assay, a vial containing 10^7 CD4+ T cells is thawed rapidly in 37° C. water bath, immediately transferred into 20 mL X-Vivo 15 medium (Lonza), is spun for 6 min at 300×g, the supernatant is discarded, and the resulting pellet is re-suspended at 10^6 cells/mL in […] fresh X-Vivo 15 medium, followed by storage overnight in a tissue culture vessel in a humidified chamber at 37° C. and 5% CO2. Serial dilutions of compounds of the invention are prepared at 10× final concentration in X-Vivo15 medium containing 3% (v/v) DMSO.
On the second day of the assay, a 384-well tissue culture plate was coated with 10 μg/mL anti-hCD3 (eBioscience) at 50 μL/well. After 2 hr at 37° C., the supernatant is discarded and the coated plates are kept in a sterile tissue culture hood.
Cytokine plus anti-CD28 cocktail is prepared by mixing 25 ng/mL hIL-6 (Peprotech), 5 ng/mL hTGFbeta1 (Peprotech), 12.5 ng/mL IL-1beta (Peprotech), 25 ng/mL hIL-21, 25 ng/mL hIL-23 (R&D Systems), and 1 ug/mL anti-hCD28 (eBioscience) in X-Vivo 15 medium. The cytokine plus anti-CD28 cocktail with CD4+ cells is prepared such that the cocktail is diluted 10-fold and cell density is 0.22×10^6/mL. The mixture is incubated 1 hr at 37° C.
90 μL (20,000 cells) dispensed per well in the anti-hCD3 coated plate prepared as noted above.
10 μL 10× compound is added per well (final DMSO=0.3%) from the compound plate that was previously prepared, followed by 6 days of incubation in a tissue culture vessel in a humidified chamber at 37° C. and 5% CO2.
On day six of the assay, production of IL-17A in 10 μL of the supernatant is determined by sandwich ELISA using 384w hIL17 MSD plates following the manufacturer's protocol. Measurement is carried out in a Sector Imager 6000 by the same manufacturer. Signal units from the instrument are converted to pg/mL using a calibration curve with known amounts of IL-17A. IC50 values of test compounds (Table 2) are determined by the non-linear regression analysis of dose response curves.
For orientation: An ELISA detects its analyte on a solid surface through an enzyme-linked reagent.

Take `COc1c(NC(=O)c2cccc(C#N)c2)cnc2c1c(C1CCN(C(=O)[C@@H](C)C(C)C)CC1)cn2C` [Example 14, (S)-3-cyano-N-(3-(1-(2,3-dimethylbutanoyl)piperidin-4-yl)-4-methoxy-1-methyl-1H-pyrrolo[2,3-b]pyridin-5-yl)benzamide]: the pIC50 was 7.85 in test [1] and 7.38 in the test with human Th17 cells.
For `COc1c(NC(=O)c2cccc(C#N)c2)cnc2c1c(C1CCN(C(=O)[C@@H](C)C(C)(C)C)CC1)cn2C` [Example 15, (S)-3-cyano-N-(4-methoxy-1-methyl-3-(1-(2,3,3-trimethylbutanoyl)piperidin-4-yl)-1H-pyrrolo[2,3-b]pyridin-5-yl)benzamide], in that order: 8.07 and 7.63.
With `COc1c(NC(=O)c2cccc(C#N)c2)cnc2c1c(C1CCN(C(=O)c3c(C)cccc3F)CC1)cn2C` [Example 16, 3-cyano-N-(3-(1-(2-fluoro-6-methylbenzoyl)piperidin-4-yl)-4-methoxy-1-methyl-1H-pyrrolo[2,3-b]pyridin-5-yl)benzamide], the negative logarithm of the IC50 (pIC50) in test [1] was 8.14; in the test with human Th17 cells, 7.44.
As to `COc1c(NC(=O)c2cc(C#N)cc(CO)c2)cnc2c1c(C1CCN(C(=O)C3CCCC3)CC1)cn2C` [Example 17, 3-cyano-N-(3-(1-(cyclopentanecarbonyl)piperidin-4-yl)-4-methoxy-1-methyl-1H-pyrrolo[2,3-b]pyridin-5-yl)-5-(hydroxymethyl)benzamide], the values for the negative-log IC50 (pIC50) (in test [1]; with human Th17 cells) were 7.85 and 7.09, respectively.
In the case of `COc1c(NC(=O)c2cccc(C#N)c2)cnc2c1c(C1CCN(C(=O)[C@H](C)C3CCCC3)CC1)cn2C` [Example 18, (R)-3-cyano-N-(3-(1-(2-cyclopentylpropanoyl)piperidin-4-yl)-4-methoxy-1-methyl-1H-pyrrolo[2,3-b]pyridin-5-yl)benzamide], the pIC50 is 8.15 in test [1] and 8.19 in the test with human Th17 cells.
`COc1c(NC(=O)c2cccc(C#N)c2)cnc2c1c(C1CCN(C(=O)[C@@H](C)C3CCCC3)CC1)cn2C` [Example 19, (S)-3-cyano-N-(3-(1-(2-cyclopentylpropanoyl)piperidin-4-yl)-4-methoxy-1-methyl-1H-pyrrolo[2,3-b]pyridin-5-yl)benzamide]: the pIC50 is 7.88 in test [1] and 7.65 with human Th17 cells.
For `COc1c(NC(=O)c2cccc(C#N)c2)cnc2c1c([C@@H]1[C@@H]3CC[C@H]1CN(C(=O)C(C)C)C3)cn2C` [Example 20, 3-cyano-N-(3-(3-isobutyryl-3-azabicyclo[3.2.1]octan-8-yl)-4-methoxy-1-methyl-1H-pyrrolo[2,3-b]pyridin-5-yl)benzamide], in that order: 7.63 and 6.95.
For `COc1c(NC(=O)c2cccc(C#N)c2)cnc2c1c([C@@H]1[C@@H]3CC[C@H]1CN(C(=O)C1CCCC1)C3)cn2C` [Example 23, 3-cyano-N-(3-((1R,5S,8r)-3-(cyclopentanecarbonyl)-3-azabicyclo[3.2.1]octan-8-yl)-4-methoxy-1-methyl-1H-pyrrolo[2,3-b]pyridin-5-yl)benzamide], the pIC50 in test [1] is 7.51; with human Th17 cells it was 7.42.
As to `COc1c(NC(=O)c2cccc(C#N)c2)cnc2c1c(C1CCN(C(=O)C3CCCC3)C[C@@H]1C)cn2C` (stereo partly drawn) [Example 24, 3-cyano-N-(3-((3R,4R)-1-(cyclopentanecarbonyl)-3-methylpiperdin-4-yl)-4-methoxy-1-methyl-1H-pyrrolo[2,3-b]pyridin-5-yl)benzamide], the pIC50 was 7.99 in test [1] and 7.60 with human Th17 cells.
Regarding `COc1ccc(C(=O)Nc2cnc3c(c([C@@H]4CCN(C(=O)C5CCCC5)C[C@@H]4C)cn3C)c2OC)cc1C#N` [Example 25, 3-cyano-N-(3-((3R,4R)-1-(cyclopentanecarbonyl)-3-methylpiperidin-4-yl)-4-methoxy-1-methyl-1H-pyrrolo[2,3-b]pyridin-5-yl)-4-methoxybenzamide], the pIC50 in test [1] was 8.00; in the test with human Th17 cells, 7.92.
Turning to `COc1c(NC(=O)c2cccc(C#N)c2)cnc2c1c([C@@H]1CCN(C(=O)[C@H](C)C(C)(C)C)C(C)(C)C1)cn2C` [Example 26, 3-cyano-N-(3-((R)-2,2-dimethyl-1-((R)-2,3,3-trimethylbutanoyl)piperidin-4-yl)-4-methoxy-1-methyl-1H-pyrrolo[2,3-b]pyridin-5-yl)benzamide], the pIC50 in test [1] was 7.98; with human Th17 cells, 8.19.
The corresponding values for `COc1c(NC(=O)c2cccc(C#N)c2)cnc2c1c([C@@H]1CCN(C(=O)C3CCCCC3)C(C)(C)C1)cn2C` [Example 27, (R)-3-cyano-N-(3-(1-(cyclohexanecarbonyl)-2,2-dimethylpiperidin-4-yl)-4-methoxy-1-methyl-1H-pyrrolo[2,3-b]pyridin-5-yl)benzamide] are 8.32 and 7.95.
Turning to `COc1c(NC(=O)c2cccc(C#N)c2)cnc2c1c([C@@H]1CCN(C(=O)C(C)C)C(C)(C)C1)cn2C` [Example 28, (R)-3-cyano-N-(3-(1-isobutyryl-2,2-dimethylpiperidin-4-yl)-4-methoxy-1-methyl-1H-pyrrolo[2,3-b]pyridin-5-yl)benzamide], the negative logarithm of the IC50 (pIC50) in test [1] is 8.21; with human Th17 cells, 7.67.
As for `COc1ccc(C(=O)Nc2cnc3c(c([C@@H]4CCN(C(=O)C(C)C)C(C)(C)C4)cn3C)c2OC)cc1C#N` [Example 29, (R)-3-cyano-N-(3-(1-isobutyryl-2,2-dimethylpiperidin-4-yl)-4-methoxy-1-methyl-1H-pyrrolo[2,3-b]pyridin-5-yl)-4-methoxybenzamide], the pIC50 in test [1] was 8.09; in the test with human Th17 cells it was 8.05.
